25 molecules from US20020049223A1, “Quinoline and naphthyridine carboxylic acid antibacterials” (priority 1999, published 2002) can be followed below.

Structures can show the parent of a compound that is named as a salt.

Data set [1] concerns Enterococcus faecalis PIU 1967. The data set can be described thus: Assay B: in vitro antibacterial activity, broth microdilution MIC (NCCLS). It counts as cell-based. Particulars: Table 2, Assay B, cation-adjusted Mueller Hinton broth, 35° C., 16 to 20 hr; code B = Enterococcus faecalis PIU 1967; unit assumed. In outline: (§1)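 NCCLS broth microdilution: cation-adjusted MH broth, ~5×10^5 CFU/mL, 35° C, 16–20 hr, visual endpoint of complete growth inhibition. Fastidious strains incubated 20–24 hr, S. pneumoniae with 3% lysed horse blood, H. influenzae with yeast extract, hematin and NAD.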
For orientation: Dilution methods test growth across graded concentrations, often in twofold steps.

The test system of data set [2] is Haemophilus influenzae DILL AMP R. The description is as above. It counts as cell-based. The conditions noted are these: Table 2, Assay B, Mueller Hinton broth with yeast extract, hematin and NAD, 20 to 24 hr; code E = Haemophilus influenzae DILL AMP R; unit assumed. In outline: as §1
Data set [3] deals with Escherichia coli JUHL. The data set is described as above. It counts as cell-based. The conditions noted are these: Table 2, Assay B, cation-adjusted Mueller Hinton broth, 35° C., 16 to 20 hr; code D = Escherichia coli JUHL; unit assumed. The gist of the method: as §1
In data set [4] the test system is Streptococcus pneumoniae ATCC 6303. The description is as above. It counts as cell-based. The conditions noted are these: Table 2, Assay B, Mueller Hinton broth with 3% lysed horse blood, 20 to 24 hr; code F = Streptococcus pneumoniae ATCC 6303; unit assumed. In outline: as §1
Data set [5] concerns Staphylococcus aureus ATCC 6538P. The description is as above. Particulars: Table 2, Assay B, cation-adjusted Mueller Hinton broth, 35° C., 16 to 20 hr; code A = Staphylococcus aureus ATCC 6538P; unit assumed. It counts as cell-based. In outline: as §1

The melting point is the temperature, or range, at which the solid turns liquid. Turning to `Br.COc1c(-c2cc3c(s2)CCNC3C)ccc2c(=O)c(C(=O)O)cn(C3CC3)c12` (centres unmarked), the melting point was 202 to 205 °C (dec.).
For `CC1NCCc2cc(-c3ccc4c(=O)c(C(=O)O)cn(C5CC5)c4n3)sc21.Cl` (centres unmarked), the melting point is 310 to 312 °C.
On to `Br.CC1(C)CNCc2cc(-c3ccc4c(=O)c(C(=O)O)cn(C5CC5)c4n3)sc21`, for which the melting point is > 300 °C (dec.).
Consider `Br.CC1(C)CNCc2cc(-c3ccc4c(=O)c(C(=O)O)cn(C5CC5)c4c3)sc21`, for which the melting point is > 300 °C (dec.).
`Br.COc1c(-c2cc3c(s2)C(C)(C)CNC3)ccc2c(=O)c(C(=O)O)cn(C3CC3)c12`: the melting point was 212 to 217 °C (dec.).
Regarding `Br.CC1(C)CNCc2cc(-c3nc4c(cc3F)c(=O)c(C(=O)O)cn4C3CC3)sc21`, the melting point is 258 to 262 °C (dec.).
Consider `CC1CNCc2sc(-c3ccc4c(=O)c(C(=O)O)cn(C5CC5)c4c3)cc21.Cl` (centres unmarked), for which the melting point is 295 to 298 °C.
The same measure, in the same setting: the result for `COc1c(-c2cc3c(s2)CNCC3C)ccc2c(=O)c(C(=O)O)cn(C3CC3)c12.Cl` (centres unmarked) reads 254 to 259 °C; that for `CC1CNCc2sc(-c3nc4c(cc3F)c(=O)c(C(=O)O)cn4C3CC3)cc21.Cl` (centres unmarked), 288 to 290 °C.
`Cl.O=C(O)c1cn(C2CC2)c2nc(-c3cc4c(s3)CNCC4)ccc2c1=O` yielded a melting point of 298 to 300 °C.
`COc1c(-c2cc3c(s2)CCC/C3=N\OCc2cccnc2)ccc2c(=O)c(C(=O)O)cn(C3CC3)c12` (as salt: hydrochloride) [Example 182, 1-cyclopropyl-8-methoxy-4-oxo-7-((4E)-4-((3-pyridinylmethoxy)imino)-4,5,6,7-tetrahydro-1-benzothien-2-yl)-1,4-dihydro-3-quinolinecarboxylic acid] showed a melting point of 181 to 183 °C.
As for `COc1c(-c2cc3c(s2)CCC/C3=N\OCc2ccccn2)ccc2c(=O)c(C(=O)O)cn(C3CC3)c12` (as salt: hydrochloride) [Example 183, 1-cyclopropyl-8-methoxy-4-oxo-7-((4E)-4-((2-pyridinylmethoxy)imino)-4,5,6,7-tetrahydro-1-benzothien-2-yl)-1,4-dihydro-3-quinolinecarboxylic acid], the melting point was 178 to 179 °C.
`COc1c(-c2cc3c(s2)CCCC3O)ccc2c(=O)c(C(=O)O)cn(C3CC3)c12` (centres unmarked) [Example 38, 1-cyclopropyl-7-(4-hydroxy-4,5,6,7-tetrahydro-1-benzothien-2-yl)-8-methoxy-4-oxo-1,4-dihydro-3-quinolinecarboxylic acid] gave a melting point of 237 to 239 °C.
As for `COc1c(-c2cc3c(s2)C(O)CCC3)ccc2c(=O)c(C(=O)O)cn(C3CC3)c12` (centres unmarked) [Example 41, 1-cyclopropyl-7-(7-hydroxy-4,5,6,7-tetrahydro-1-benzothien-2-yl)-8-methoxy-4-oxo-1,4-dihydro-3-quinolinecarboxylic acid], the melting point is 238 to 240 °C.
`COc1c(-c2cc3c(s2)CCC(CO)=C3)ccc2c(=O)c(C(=O)O)cn(C3CC3)c12` [Example 44, 1-cyclopropyl-7-(5-(hydroxymethyl)-6,7-dihydro-1-benzothien-2-yl)-8-methoxy-4-oxo-1,4-dihydro-3-quinolinecarboxylic acid] came in with a melting point of 205 to 206 °C.
Molecule `CC1(C)CCc2cc(-c3cc4c(cc3F)c(=O)c(C(=O)O)cn4C3CC3)sc2C1O` (centres unmarked) [Example 342, 1-cyclopropyl-6-fluoro-7-(7-hydroxy-6,6-dimethyl-4,5,6,7-tetrahydro-1-benzothien-2-yl)-4-oxo-1,4-dihydroquinoline-3-carboxylic acid] registered an Antibacterial Activity (MIC's), B in data set [1] of 0.25 µg/mL. The molecule further returned an Antibacterial Activity (MIC's), E in data set [2] of 0.25 µg/mL. In data set [3], this molecule returned an Antibacterial Activity (MIC's), D of 0.5 µg/mL. This molecule displayed an Antibacterial Activity (MIC's), F in data set [4] of 0.125 µg/mL. Besides, the Antibacterial Activity (MIC's), A in data set [5] amounted to 0.03 µg/mL.
The molecule `CNC1CCCc2sc(-c3c(F)c(N)c4c(=O)c(C(=O)O)cn(C5CC5)c4c3F)cc21.Cl` (centres unmarked) [Example 346, 5-amino-1-cyclopropyl-6,8-difluoro-7-(4-(methylamino)-4,5,6,7-tetrahydro-1-benzothien-2-yl)-4-oxo-1,4-dihydroquinoline-3-carboxylic acid hydrochloride] yielded an Antibacterial Activity (MIC's), B in data set [1] of 0.03 µg/mL. In data set [2], this molecule registered an Antibacterial Activity (MIC's), E of 0.015 µg/mL. In addition, the Antibacterial Activity (MIC's), D in data set [3] stood at 0.125 µg/mL. This molecule also yielded an Antibacterial Activity (MIC's), F in data set [4] of 0.008 µg/mL. This molecule displayed an Antibacterial Activity (MIC's), A in data set [5] of no more than 0.004 µg/mL.
For `CC1(C)CCc2cc(-c3ccc4c(=O)c(C(=O)O)cn(C5CC5)c4c3Cl)sc2C1N.Cl` (centres unmarked) [Example 347, 7-(7-amino-6,6-dimethyl-4,5,6,7-tetrahydro-1-benzothien-2-yl)-8-chloro-1-cyclopropyl-4-oxo-1,4-dihydroquinoline-3-carboxylic acid hydrochloride], in that order: 0.25 µg/mL, 0.06 µg/mL, 0.25 µg/mL, 0.125 µg/mL and 0.03 µg/mL.
In data set [1], `COc1c(-c2cc3c(s2)C(N)C(C)(C)CC3)c(F)cc2c(=O)c(C(=O)O)cn(C3CC3)c12.Cl` (centres unmarked) [Example 348, 7-(7-amino-6,6-dimethyl-4,5,6,7-tetrahydro-1-benzothien-2-yl)-1-cyclopropyl-6-fluoro-8-methoxy-4-oxo-1,4-dihydroquinoline-3-carboxylic acid hydrochloride] displayed an Antibacterial Activity (MIC's), B of 0.125 µg/mL. Further, the Antibacterial Activity (MIC's), E in data set [2] was 0.06 µg/mL. Moreover, the Antibacterial Activity (MIC's), D in data set [3] was 0.25 µg/mL. The Antibacterial Activity (MIC's), F in data set [4] came to 0.03 µg/mL. Also, the Antibacterial Activity (MIC's), A in data set [5] came to 0.015 µg/mL.
For the molecule `Nc1cc(-c2cc3c(s2)C(N)CCC3)c(F)c2c1c(=O)c(C(=O)O)cn2C1CC1.O=C(O)C(F)(F)F` (centres unmarked) [Example 349, 5-amino-7-(7-amino-4,5,6,7-tetrahydro-1-benzothien-2-yl)-1-cyclopropyl-8-fluoro-4-oxo-1,4-dihydroquinoline-3-carboxylic acid trifluoroacetic acid salt], the Antibacterial Activity (MIC's), B in data set [1] was determined as 0.125 µg/mL. Besides, the Antibacterial Activity (MIC's), E in data set [2] is no more than 0.004 µg/mL. This molecule also returned an Antibacterial Activity (MIC's), D in data set [3] of 0.03 µg/mL. Moreover, in data set [4], the Antibacterial Activity (MIC's), F came out at 0.03 µg/mL. In data set [5], this molecule displayed an Antibacterial Activity (MIC's), A of 0.015 µg/mL.
`CNC1CCCc2sc(-c3ccc4c(=O)c(C(=O)O)cn(C5CC5)c4c3Cl)cc21.Cl` (centres unmarked) [Example 361, 8-chloro-1-cyclopropyl-7-(4-(methylamino)-4,5,6,7-tetrahydro-1-benzothien-2-yl)-4-oxo-1,4-dihydroquinoline-3-carboxylic acid hydrochloride] showed an Antibacterial Activity (MIC's), B in data set [1] of 0.06 µg/mL. For the same molecule, the Antibacterial Activity (MIC's), E in data set [2] came to 0.015 µg/mL. In data set [3], the Antibacterial Activity (MIC's), D turned out to be 0.06 µg/mL. In addition, the Antibacterial Activity (MIC's), F in data set [4] was found to be 0.03 µg/mL. In data set [5], the Antibacterial Activity (MIC's), A is 0.015 µg/mL.
Turning to `Cc1c(F)c(-c2cc3c(s2)CCCC3N)nc2c1c(=O)c(C(=O)O)cn2C1CC1.Cl` (centres unmarked) [Example 367, 7-(4-amino-4,5,6,7-tetrahydro-1-benzothien-2-yl)-1-cyclopropyl-6-fluoro-5-methyl-4-oxo-1,4-dihydro-1,8-naphthyridine-3-carboxylic acid hydrochloride], in data set [1], the Antibacterial Activity (MIC's), B was 0.125 µg/mL. Moreover, the Antibacterial Activity (MIC's), E in data set [2] turned out to be 0.03 µg/mL. The Antibacterial Activity (MIC's), D in data set [3] was 0.06 µg/mL. Moreover, the Antibacterial Activity (MIC's), F in data set [4] is 0.03 µg/mL. The Antibacterial Activity (MIC's), A in data set [5] stood at 0.015 µg/mL.
In data set [1], `Cc1c(-c2cc3c(s2)C(N)CCC3)c(F)cc2c(=O)c(C(=O)O)cn(C3CC3)c12.Cl` (centres unmarked) [Example 368, 7-(7-amino-4,5,6,7-tetrahydro-1-benzothien-2-yl)-1-cyclopropyl-6-fluoro-8-methyl-4-oxo-1,4-dihydroquinoline-3-carboxylic acid hydrochloride] had an Antibacterial Activity (MIC's), B of 0.06 µg/mL. In addition, in data set [2], the Antibacterial Activity (MIC's), E was no more than 0.004 µg/mL. For the same molecule, in data set [3], the Antibacterial Activity (MIC's), D stood at 0.03 µg/mL. In addition, the Antibacterial Activity (MIC's), F in data set [4] came to 0.03 µg/mL. In data set [5], this molecule yielded an Antibacterial Activity (MIC's), A of 0.015 µg/mL.
Molecule `Cc1c(-c2cc3c(s2)C(O)CCC3)c(F)cc2c(=O)c(C(=O)O)cn(C3CC3)c12` (centres unmarked) [Example 369, 1-cyclopropyl-6-fluoro-7-(7-hydroxy-4,5,6,7-tetrahydro-1-benzothien-2-yl)-8-methyl-4-oxo-1,4-dihydroquinoline-3-carboxylic acid] yielded an Antibacterial Activity (MIC's), B in data set [1] of 0.03 µg/mL. This molecule also registered an Antibacterial Activity (MIC's), E in data set [2] of no more than 0.004 µg/mL. The molecule also returned an Antibacterial Activity (MIC's), D in data set [3] of 0.06 µg/mL. Moreover, the Antibacterial Activity (MIC's), F in data set [4] was 0.03 µg/mL. The Antibacterial Activity (MIC's), A in data set [5] was no more than 0.004 µg/mL.
The molecule `Cc1c(F)c(-c2cc3c(s2)C(N)CCC3)nc2c1c(=O)c(C(=O)O)cn2C1CC1.Cl` (centres unmarked) [Example 371, 7-(7-amino-4,5,6,7-tetrahydro-1-benzothien-2-yl)-1-cyclopropyl-6-fluoro-5-methyl-4-oxo-1,4-dihydro-1,8-naphthyridine-3-carboxylic acid hydrochloride] had an Antibacterial Activity (MIC's), B in data set [1] of 0.03 µg/mL. Moreover, in data set [2], the Antibacterial Activity (MIC's), E was determined as 0.03 µg/mL. Also, the Antibacterial Activity (MIC's), D in data set [3] was determined as 0.06 µg/mL. Further, the Antibacterial Activity (MIC's), F in data set [4] is no more than 0.004 µg/mL. Besides, the Antibacterial Activity (MIC's), A in data set [5] is no more than 0.004 µg/mL.
